The assay concerns the target T1, GLS1 (purified recombinant human GAC) (Homo sapiens, UniProt O94925).
T1 sequence (O94925 55-598 isoform O94925-3 limits assumed): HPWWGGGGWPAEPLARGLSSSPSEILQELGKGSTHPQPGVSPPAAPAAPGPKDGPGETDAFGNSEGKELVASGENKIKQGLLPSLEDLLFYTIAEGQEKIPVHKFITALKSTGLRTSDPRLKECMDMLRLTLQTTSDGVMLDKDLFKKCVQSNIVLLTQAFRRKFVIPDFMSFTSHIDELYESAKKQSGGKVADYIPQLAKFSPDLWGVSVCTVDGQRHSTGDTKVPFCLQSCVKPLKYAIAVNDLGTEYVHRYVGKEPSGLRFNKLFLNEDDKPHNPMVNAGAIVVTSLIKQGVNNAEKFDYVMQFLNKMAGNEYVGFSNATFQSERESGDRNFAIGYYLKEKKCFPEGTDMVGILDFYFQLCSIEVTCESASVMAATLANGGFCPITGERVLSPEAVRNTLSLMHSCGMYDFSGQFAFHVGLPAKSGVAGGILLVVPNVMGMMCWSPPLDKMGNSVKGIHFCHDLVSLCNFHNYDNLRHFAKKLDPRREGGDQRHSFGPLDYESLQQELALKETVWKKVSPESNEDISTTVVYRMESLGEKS
The assay can be described thus: GLS1 enzymatic activity assay (dual-coupled, Amplex UltraRed/resorufin). It is filed as biochemical. As to the method: GLS1 Enzymatic Activity Assay
The inhibition of purified recombinant human GAC by varying concentrations of inhibitors is assessed via a dual-coupled enzymatic assay. The glutamate produced by the glutaminase reaction is used by glutamate oxidase to produce α-ketoglutarate, ammonia, and hydrogen peroxide, with this hydrogen peroxide subsequently being used by horseradish peroxidase to produce resorufin in the presence of Amplex UltraRed. The assay buffer consisted of 50 mM Hepes (pH 7.4), 0.25 mM EDTA and 0.1 mM Triton X-100. GAC was incubated with potassium phosphate (10 minutes at room temperature) prior to incubation with inhibitor (10 minutes at room temperature). The final reaction conditions were as follows: 2 nM GAC, 50 mM potassium phosphate, 100 mU/mL glutamate oxidase (Sigma), 1 mM glutamine (Sigma), 100 mU/mL horseradish peroxidase (Sigma), 75 μM Amplex UltraRed (Life Technologies), and 1% (v/v) DMSO. The production of resorufin was monitored on a Perkin Elmer Envision plate reader (excitation 530 nm, emission 590 nm) either in a kinetics or endpoint mode (at 20 minutes). IC50 values were calculated using a four-parameter logistic curve fit.
The IC50 is the midpoint of a concentration-inhibition curve. `CC(C)(C)OC(=O)NCc1cn(CCCCn2ccc(NC(=O)Cc3ccccc3)cc2=O)nn1` [Example 9, tert-Butyl N-[(1-{4-[2-oxo-4-(2-phenylacetamido)-1,2-dihydropyridin-1-yl]butyl}-1H-1,2,3-triazol-4-yl)methyl]carbamate]: the IC50 lay in the range of 0.5 to 5 µM.
Turning to `Nc1ccn(CCCCc2ccc(NC(=O)Cc3ccccc3)nn2)c(=O)n1` [Example 21, N-(6-(4-(4-amino-2-oxopyrimidin-1(2H)-yl)butyl)pyridazin-3-yl)-2-phenylacetamide], the IC50 fell in the range of 0.5 to 5 µM.
Under `COCCCNc1ccn(CCCCc2ccc(NC(=O)Cc3ccccc3)nn2)c(=O)n1` [Example 25, N-(6-(4-(4-((3-methoxypropyl)amino)-2-oxopyrimidin-1(2H)-yl)butyl)pyridazin-3-yl)-2-phenylacetamide] stands 0.5 to 5 µM; under `CC(C)CS(=O)(=O)Nc1ccn(CCCCc2ccc(NC(=O)Cc3ccccc3)nn2)c(=O)n1` [Example 26, N-(6-(4-(4-(2-methylpropylsulfonamido)-2-oxopyrimidin-1(2H)-yl)butyl)pyridazin-3-yl)-2-phenylacetamide], 0.5 to 5 µM; under `Nc1nnc(CCCCn2ccc(NC(=O)Cc3ccccc3)cc2=O)s1` [Example 30, N-{1-[4-(5-amino-1,3,4-thiadiazol-2-yl)butyl]-2-oxo-1,2-dihydropyridin-4-yl}-2-phenylacetamide], 0.5 to 5 µM.
For `O=C(Cc1cccc(OC(F)(F)F)c1)Nc1ccn(CCCCn2cc(C(=O)NCc3ccccc3)nn2)c(=O)n1` [Example 115, N-benzyl-1-[4-(2-oxo-4-{2-[3-(trifluoromethoxy)phenyl]acetamido}-1,2-dihydropyrimidin-1-yl)butyl]-1H-1,2,3-triazole-4-carboxamide] the value was 0.5 to 5 µM.
For `C[C@@H](NC(=O)c1ccn(CCCCn2cc(C(=O)NCc3cccc(OC(F)(F)F)c3)nn2)c(=O)c1)C(N)=O` [Example 137, 1-[4-(4-{[(1R)-1-carbamoylethyl]carbamoyl}-2-oxo-1,2-dihydropyridin-1-yl)butyl]-N-{[3-(trifluoromethoxy)phenyl]methyl}-1H-1,2,3-triazole-4-carboxamide] the value was 0.5 to 5 µM.
For the molecule `C[C@H](NC(=O)c1ccn(CCCCn2cc(C(=O)NCc3cccc(OC(F)(F)F)c3)nn2)c(=O)c1)C(N)=O` [Example 138, 1-[4-(4-{[(1S)-1-carbamoylethyl]carbamoyl}-2-oxo-1,2-dihydropyridin-1-yl)butyl]-N-{[3-(trifluoromethoxy)phenyl]methyl}-1H-1,2,3-triazole-4-carboxamide], the half-maximal inhibitory concentration (IC50) is 0.5 to 5 µM.
Under `Nc1ccn(CCCCn2cc(C(=O)NCc3cccc(C(F)(F)F)c3)nn2)c(=O)c1` [Example 140, 1-[4-(4-amino-2-oxo-1,2-dihydropyridin-1-yl)butyl]-N-{[3-(trifluoromethyl)phenyl]methyl}-1H-1,2,3-triazole-4-carboxamide] stands 0.5 to 5 µM.
Under `CC(=O)Nc1ccn(CCCCn2cc(C(=O)NCc3cccc(C(F)(F)F)c3)nn2)c(=O)c1` [Example 142, 1-[4-(4-acetamido-2-oxo-1,2-dihydropyridin-1-yl)butyl]-N-{[3-(trifluoromethyl)phenyl]methyl}-1H-1,2,3-triazole-4-carboxamide] stands 0.5 to 5 µM.
For the molecule `CCN1CCC(CC(=O)Nc2ccn(CCCCn3cc(C(=O)NCc4cccc(OC(F)(F)F)c4)nn3)c(=O)c2)CC1` [Example 207, 1-(4-{4-[2-(1-ethylpiperidin-4-yl)acetamido]-2-oxo-1,2-dihydropyridin-1-yl}butyl)-N-{[3-(trifluoromethoxy)phenyl]methyl}-1H-1,2,3-triazole-4-carboxamide], the IC50 fell in the range of 0.5 to 5 µM.
On to `CCN1CCC(CC(=O)Nc2ccn(CCC(F)Cn3cc(C(=O)NCc4cccc(OC(F)(F)F)c4)nn3)c(=O)c2)CC1` (stereo not drawn) [Example 218, 1-(4-{4-[2-(1-ethylpiperidin-4-yl)acetamido]-2-oxo-1,2-dihydropyridin-1-yl}-2-fluorobutyl)-N-{[3-(trifluoromethoxy)phenyl]methyl}-1H-1,2,3-triazole-4-carboxamide], for which the IC50 lay in the range of 0.1 to 0.5 µM.
Under `CCOC(=O)c1cn(CC(F)CCn2ccc(NC(=O)CC3CCCCC3)c(F)c2=O)nn1` (stereo not drawn) [Example 225, ethyl 1-{4-[4-(2-cyclohexylacetamido)-3-fluoro-2-oxo-1,2-dihydropyridin-1-yl]-2-fluorobutyl}-1H-1,2,3-triazole-4-carboxylate] stands 0.5 to 5 µM; under `O=C1CN(CC(=O)Nc2ccn(CCC(F)Cn3cc(C(=O)NCc4cccc(OC(F)(F)F)c4)nn3)c(=O)c2)CCN1` (stereo not drawn) [Example 230, 1-(2-fluoro-4-{2-oxo-4-[2-(3-oxopiperazin-1-yl)acetamido]-1,2-dihydropyridin-1-yl}butyl)-N-{[3-(trifluoromethoxy)phenyl]methyl}-1H-1,2,3-triazole-4-carboxamide], 0.1 to 0.5 µM; under `CN1CCN(CC(=O)Nc2ccn(CCC(F)Cn3cc(C(=O)NCc4cccc(OC(F)(F)F)c4)nn3)c(=O)c2)CC1` (stereo not drawn) [Example 254, 1-(2-fluoro-4-{4-[2-(4-methylpiperazin-1-yl)acetamido]-2-oxo-1,2-dihydropyridin-1-yl}butyl)-N-{[3-(trifluoromethoxy)phenyl]methyl}-1H-1,2,3-triazole-4-carboxamide], 0.1 to 0.5 µM.
Under `CC(C)(C)OC(=O)Nc1ccn(CCC(F)Cn2cc(C(=O)NCc3cccc(C(F)(F)F)n3)nn2)c(=O)c1F` (stereo not drawn) [Example 319, tert-butyl N-(3-fluoro-1-{3-fluoro-4-[4-({[6-(trifluoromethyl)pyridin-2-yl]methyl}carbamoyl)-1H-1,2,3-triazol-1-yl]butyl}-2-oxo-1,2-dihydropyridin-4-yl)carbamate] stands 0.1 to 0.5 µM; under `Nc1ccn(CCC(F)Cn2cc(C(=O)NCc3cccc(C(F)(F)F)n3)nn2)c(=O)c1F` (stereo not drawn) [Example 321, 1-[4-(4-amino-3-fluoro-2-oxo-1,2-dihydropyridin-1-yl)-2-fluorobutyl]-N-{[6-(trifluoromethyl)pyridin-2-yl]methyl}-1H-1,2,3-triazole-4-carboxamide], > 5 µM.
For `Nc1ccn(CCC(F)Cn2cc(C(=O)NCc3cc(C(F)(F)F)ccn3)nn2)c(=O)c1F` (stereo not drawn) [Example 322, 1-[4-(4-amino-3-fluoro-2-oxo-1,2-dihydropyridin-1-yl)-2-fluorobutyl]-N-{[4-(trifluoromethyl)pyridin-2-yl]methyl}-1H-1,2,3-triazole-4-carboxamide] the value was > 5 µM; for `O=C(Cc1ccccc1)Nc1ccn(CCCn2cc(C(=O)NCc3cccc(OC(F)(F)F)c3)nn2)c(=O)c1` [Example 436, 1-{3-[2-oxo-4-(2-phenylacetamido)-1,2-dihydropyridin-1-yl]propyl}-N-{[3-(trifluoromethoxy)phenyl]methyl}-1H-1,2,3-triazole-4-carboxamide], > 5 µM; for `O=C(NCc1ccccc1)c1ccn(CCCn2cc(C(=O)NCc3cccc(OC(F)(F)F)c3)nn2)c(=O)c1` [Example 437, N-benzyl-2-oxo-1-{3-[4-({[3-(trifluoromethoxy)phenyl]methyl}carbamoyl)-1H-1,2,3-triazol-1-yl]propyl}-1,2-dihydropyridine-4-carboxamide], > 5 µM.
Consider `Cc1ccc(CNC(=O)c2nnc(CCCCn3ccc(NC(=O)Cc4ccccn4)cc3=O)s2)cn1` [Example 444, N-[(6-methylpyridin-3-yl)methyl]-5-(4-{2-oxo-4-[2-(pyridin-2-yl)acetamido]-1,2-dihydropyridin-1-yl}butyl)-1,3,4-thiadiazole-2-carboxamide], for which the IC50 lay within 0.1 to 0.5 µM.
Under `O=C(Cc1ccccn1)Nc1ccn(CCCCc2nnc(C(=O)NCc3ccccn3)s2)c(=O)c1` [Example 448, 5-(4-{2-oxo-4-[2-(pyridin-2-yl)acetamido]-1,2-dihydropyridin-1-yl}butyl)-N-(pyridin-2-ylmethyl)-1,3,4-thiadiazole-2-carboxamide] stands 0.5 to 5 µM; under `COCCNC(=O)c1nnc(CCCCn2ccc(NC(=O)Cc3ccccc3)cc2=O)s1` [Example 449, N-(2-methoxyethyl)-5-{4-[2-oxo-4-(2-phenylacetamido)-1,2-dihydropyridin-1-yl]butyl}-1,3,4-thiadiazole-2-carboxamide], 0.5 to 5 µM; under `COCCNC(=O)c1nnc(CCCCn2ccc(NC(=O)Cc3ccccn3)cc2=O)s1` [Example 452, N-(2-methoxyethyl)-5-(4-{2-oxo-4-[2-(pyridin-2-yl)acetamido]-1,2-dihydropyridin-1-yl]butyl)-1,3,4-thiadiazole-2-carboxamide], 0.5 to 5 µM.

Values taken from US20160002204A1 (Board of Regents, The University of Texas System, priority 2014, published 2016).
